According to publication PMC6736568, “Discovery of Novel Anti-cryptosporidial Activities From Natural Products by in vitro High-Throughput Phenotypic Screening” (Frontiers in Microbiology, 2019):
Counter-ions that a name gives are not always drawn. Like-named read-outs stand apart in the source and are kept apart here.

Tests used:
in vitro = conditions: for cytotoxicity at 41 h, 10 µM: human
Cryptosporidium parvum = test: qRT-PCR assay of the growth of C. parvum in vitro in HCT-8 host cells (primary and secondary screening, EC50); assay type: cell-based; conditions: Cryptosporidium parvum, HCT-8; for inhibition at 10 µM: primary screening at 10 uM, read-out: Inhibition (%); for inhibition at 3.3 µM: secondary screening at 3.3 uM, read-out: % Inhibition (3.3 uM)
[1] = primary screening at 10 uM, treated vs control

| SMILES | cytotoxicity at 10 µM (in vitro) [%] | Hs18S ΔCT (HCT-8 host cells (Hs18S); [1]) | inhibition at 10 µM (Cryptosporidium parvum) [%] | cytotoxicity at 41 h, 10 µM (in vitro) [%] | Hs18S ΔCT (HCT-8 host cells (Hs18S); human, 41 h, 10 μM) | inhibition at 3.3 µM (Cryptosporidium parvum) [%] |
| --- | --- | --- | --- | --- | --- | --- |
| C=C(C)[C@H]1CN[C@H](C(=O)O)[C@H]1CC(=O)O [KAINIC ACID] | -2.6 | -0.04 | -19.9 |  |  |  |
| NC[C@H]1O[C@H](O[C@H]2[C@H](O)[C@@H](O[C@H]3O[C@H](CO)[C@@H](O)[C@H](N)[C@H]3O)[C@H](N)C[C@@H]2N)[C@H](O)[C@@H](O)[C@@H]1O [KANAMYCIN A SULFATE] |  |  | 29.3 | -23.9 | -0.31 |  |
| COC1=CC(=O)O[C@@H](/C=C/c2ccccc2)C1 [KAWAIN] | -10.9 | -0.15 | 16 |  |  |  |
| COc1c2occc2c(OC)c2c(=O)cc(C)oc12 [KHELLIN] |  |  | -11.8 | 14.1 | 0.22 |  |
| CC(=O)O[C@H]1C[C@@H](OC(C)=O)C(C)(C)[C@@H]2C[C@@H](OC(C)=O)[C@]3(C)[C@H](CC[C@@]4(C)[C@H](c5ccoc5)OC(=O)[C@H]5O[C@@]534)[C@@]12C [KHIVORIN] |  |  | 52.4 | 8 | 0.12 |  |
| c1coc(CNc2ncnc3[nH]cnc23)c1 [KINETIN] |  |  | -42.7 | 31 | 0.54 |  |
| CC1(C)C[C@@H]2C(=O)CC[C@H]3O[C@]3(C)CC[C@H]21 [KOBUSONE] |  |  | -24.4 | 0.5 | 0.01 |  |
| COc1ccc(-c2coc3cc(O)ccc3c2=O)c(O)c1O [KOPARIN] |  |  | 6.05 | -1.6 | -0.02 |  |
| Nc1ccccc1C(=O)CC(N)C(=O)O (centres unmarked) [KYNURENINE] | 28.1 | 0.48 | -14.4 |  |  |  |
| CC(C)=CCC[C@@H](C)[C@H]1CC[C@@]2(C)C3=C(CC[C@]12C)[C@@]1(C)CC[C@H](O)C(C)(C)[C@@H]1CC3 [LANOSTEROL] |  |  | -22.5 | -18.1 | -0.24 |  |
| CC(C)=CCC1=C(O)C(=O)c2ccccc2C1=O [LAPACHOL] |  |  | 91.3 | -52 | -0.60 | -98 |
| O=C1C=C(O)C(=O)c2ccccc21 [LAWSONE] |  |  | -46.1 | -12 | -0.16 |  |
| Cc1cc(OC(=O)c2c(C)cc(O)cc2O)cc(O)c1C(=O)O [LECANORIC ACID] |  |  | -20 | -1.2 | -0.02 |  |
| COC(=O)c1c(C)c2c(c(C)c1O)OC(=O)c1c(C)c(Cl)c(O)c(Cl)c1O2 [LEOIDIN] |  |  | 16.7 | 24.9 | 0.41 |  |
| N[C@@H](Cc1ccc(O)c(O)c1)C(=O)O [LEVODOPA] |  |  | -9.67 | -15.4 | -0.21 |  |
| N[C@@H](Cc1cc(I)c(Oc2cc(I)c(O)c(I)c2)c(I)c1)C(=O)O [LEVOTHYROXINE] |  |  | -12.4 | -2.2 | -0.03 |  |
| CC1(C)O[C@H]2CC(=O)OC[C@]23[C@H]2CC[C@@]4(C)[C@H](c5ccoc5)OC(=O)[C@H]5O[C@]54[C@]2(C)C(=O)C[C@@H]13 [LIMONIN] |  |  | 26.2 | -8.4 | -0.12 |  |
| C=C[C@@](C)(O)CCC=C(C)C [LINALOOL (+)] | 6.1 | 0.09 | -23.3 |  |  |  |
| CC(C)(C#N)O[C@@H]1O[C@H](CO)[C@@H](O)[C@H](O)[C@H]1O [LINAMARIN] |  | 0.59 | 6.23 | 33.5 |  |  |
| C[C@H](CCC(=O)O)[C@H]1CC[C@H]2[C@@H]3CC[C@@H]4C[C@H](O)CC[C@]4(C)[C@H]3CC[C@]12C [LITHOCHOLIC ACID] |  |  | -55.8 | 36.1 | 0.65 |  |
| CCCCCc1c2c(cc(O)c1C(=O)O)OC(=O)c1c(cc(OC)cc1C(=O)CCCC)O2 [LOBARIC ACID] |  |  | 18.2 | 13.1 | 0.20 |  |
| O=C(O)CCC1NCC2CC1CN1CCCCC21 (centres unmarked) [LUPANYL ACID HYDROCHLORIDE] |  |  | 5.4 | 6 | 0.09 |  |
| C=C(C)[C@@H]1CC[C@]2(C)CC[C@]3(C)[C@H](CC[C@@H]4[C@@]5(C)CC[C@H](O)C(C)(C)[C@@H]5CC[C@]43C)[C@@H]12 [LUPEOL] |  | 0.05 | 41.8 | 3.4 |  |  |
| OC[C@@H]1CCCN2CCCC[C@H]12 [LUPININE] |  |  | 26.1 | 11.8 | 0.18 |  |
| C[C@H]1[C@H](C)CC[C@]2(C(=O)O)CC[C@]3(C)C(=CC[C@@H]4[C@@]5(C)C[C@@H](O)[C@H](O)[C@@](C)(CO)[C@@H]5[C@H](O)C[C@]43C)[C@H]12 [MADECASSIC ACID] | -11.7 | -0.16 | -20.3 |  |  |  |

| SMILES | cytotoxicity at 10 µM (in vitro) [%] | Hs18S ΔCT (HCT-8 host cells (Hs18S); [1]) | inhibition at 10 µM (Cryptosporidium parvum) [%] | cytotoxicity at 41 h, 10 µM (in vitro) [%] | Hs18S ΔCT (HCT-8 host cells (Hs18S); human, 41 h, 10 μM) | inhibition at 3.3 µM (Cryptosporidium parvum) [%] |
| --- | --- | --- | --- | --- | --- | --- |
| COC(=O)C(O)c1ccccc1 (centres unmarked) [MANDELIC ACID, METHYL ESTER] |  |  | -2.26 | 19.1 | 0.31 |  |
| O=c1c2cc(O)c(O)cc2oc2cc(O)c([C@@H]3O[C@H](CO)[C@@H](O)[C@H](O)[C@H]3O)c(O)c12 [MANGIFERIN] |  |  | -3.49 | 11.5 | 0.18 |  |
| COc1ccc2[nH]cc(CCNC(C)=O)c2c1 [MELATONIN] |  |  | -62.2 | -196 | -1.56 |  |
| OC[C@H]1O[C@@](CO)(O[C@H]2O[C@H](CO)[C@@H](O)[C@H](O)[C@H]2O)[C@@H](O[C@H]2O[C@H](CO)[C@@H](O)[C@H](O)[C@H]2O)[C@@H]1O [MELEZITOSE] |  |  | -16.8 | -13 | -0.18 |  |
| CC1=CC(=O)c2ccccc2C1=O [MENADIONE] |  |  | -2.86 | 29 | 0.49 |  |
| CC(C)=CCC/C(C)=C/CC/C(C)=C/CC/C(C)=C/CC1=C(C)C(=O)c2ccccc2C1=O [MENAQUINONE-4] |  |  | -13.8 | 4.1 | 0.06 |  |
| CC(C)[C@@H]1CC[C@@H](C)CC1=O [MENTHONE] |  |  | 28.9 | -14.5 | -0.20 |  |
| CC(C)[C@@H]1CC[C@@H](C)C[C@H]1OC(=O)c1ccccc1 [MENTHYL BENZOATE] |  |  | 1.74 | 15.1 | 0.24 |  |
| CC1=C2C(O)C(=O)OC3CC4C(C)(C)C(=O)C=C[C@]4(C)C(CC1)[C@]23C (some centres unmarked) [MEROGEDUNIN] |  |  | -12.3 | -41.1 | -0.50 |  |
| COc1cc2c(cc1OC)C(=O)OC2 [METAMECONINE] |  |  | 24.5 | 20.2 | 0.33 |  |
| COC(=O)c1cc(O)c(=O)c2c(O)c(O)ccc2c1 [METHYL 7-DESHYDROXYPYROGALLIN-4-CARBOXYLATE] |  |  | -4.08 | 10.5 | 0.16 |  |
| COC(=O)c1cc(OC)c(=O)c2c(OC)c(OC)ccc2c1 [METHYL 7-DESOXYPURPUROGALLIN-7-CARBOXYLATE TRIMETHYL ETHER] |  |  | -15.9 | 0.1 | 0.00 |  |
| COC(=O)CC[C@@H](C)[C@H]1CC[C@H]2[C@@H]3CC[C@@H]4C[C@H](O)CC[C@]4(C)[C@H]3C[C@H](O)[C@]12C [METHYL DEOXYCHOLATE] |  |  | 23.4 | 36.7 | 0.66 |  |
| COC(=O)c1c(C)cc(O)cc1O [METHYL ORSELLINATE] |  |  | -34.8 | 19.6 | 0.31 |  |
| COc1c2c(cc3occ(-c4ccc5c(c4)OCO5)c(=O)c13)OC(C)(C)C=C2 [METHYL ROBUSTONE] |  |  | -44.6 | -5.4 | -0.08 |  |
| CC[C@H](C)C(=O)O[C@H]1CCC=C2C=C[C@H](C)[C@H](CC[C@@H]3C[C@@H](O)CC(=O)O3)[C@H]21 [MEVASTATIN] |  |  | 24 | 14.4 | 0.22 |  |
| COC(=O)C[C@H]1C(C)(C)C(=O)[C@@H]2CC3=C4CC(=O)O[C@@H](c5ccoc5)[C@]4(C)CC[C@@H]3[C@@]1(C)C2=O [MEXICANOLIDE] |  |  | 31.5 | -12.3 | -0.17 |  |
| NC(Cn1ccc(=O)c(O)c1)C(=O)O (centres unmarked) [MIMOSINE] |  |  | -22 | -0.4 | -0.01 |  |
| C[C@H]1C(=O)O[C@@H]2CCN3CC=C(COC(=O)[C@](C)(O)[C@]1(C)O)[C@H]23 [MONOCROTALINE] | 9.5 | 0.14 | 12 |  |  |  |
| O=c1c(O)c(-c2ccc(O)cc2O)oc2cc(O)cc(O)c12 [MORIN] | -15.6 | -0.21 | 32.3 |  |  |  |
| O=C(O)[C@@H](O)[C@H](O)[C@H](O)[C@@H](O)C(=O)O [MUCIC ACID] |  |  | -14.3 | -13.8 | -0.19 |  |
| COc1ccc2c(c1)O[C@@H]1COc3cc(OC)c(OC)cc3[C@@H]1C2=O [MUNDOSERONE] | 11.4 | 0.17 | 13.7 |  |  |  |
| COc1c(-c2coc3cc4c(cc3c2=O)CC(OC(C)=O)C(C)(C)O4)ccc2c1C=CC(C)(C)O2 (centres unmarked) [MUNDULONE ACETATE] |  |  | -3.19 | 22.6 | 0.37 |  |
| COc1c(-c2coc3cc4c(cc3c2=O)CC(O)C(C)(C)O4)ccc2c1C=CC(C)(C)O2 (centres unmarked) [MUNDULONE] |  |  | 61.8 | 14.4 | 0.22 | -43 |
